Results as given in paper PMC12276035, “Novel Para‐Phenylenediamine‐Based Derivatives as Receptor Tyrosine Kinase‐like Orphan Receptor 1 (ROR1) Inhibitors: An In Vitro Preliminary Characterization” (Chemmedchem, 2025).
Where two headings read alike, the source gives them in different places.

How the values were obtained:
ROR1 kinase domain = molecular target: T1, ROR1 kinase domain (Homo sapiens, UniProt Q01973); test: SPR assay on ROR1 kinase domain; format: binding
T1 construct: recombinant human ROR1 protein (aa 453‐783, His&GST Tag); His; GST; purchased Elabscience
T1 sequence (Q01973 453-783): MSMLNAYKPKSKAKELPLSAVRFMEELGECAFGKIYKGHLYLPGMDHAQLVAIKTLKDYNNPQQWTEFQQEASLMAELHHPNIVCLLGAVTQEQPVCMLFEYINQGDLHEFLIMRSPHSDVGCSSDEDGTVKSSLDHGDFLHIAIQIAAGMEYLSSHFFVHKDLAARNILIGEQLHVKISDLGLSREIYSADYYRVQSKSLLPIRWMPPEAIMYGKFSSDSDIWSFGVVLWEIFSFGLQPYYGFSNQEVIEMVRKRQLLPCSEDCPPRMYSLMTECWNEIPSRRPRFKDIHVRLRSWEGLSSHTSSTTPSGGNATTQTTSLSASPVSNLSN
Description: We performed molecular docking experiments to explore the binding mode of novel derivatives using the crystallographic structure of the protein co‐complexed with ponatinib, a known inhibitor of ROR1 (PDB code: 6TU9).^[ [30] ^] […] To evaluate the affinity of the synthesized molecules (10, 13, 14, 17–21, 26–29) for the protein counterpart, SPR assay was performed against kinase domain ROR1. Protein immobilization was achieved using the amide coupling method, and the molecules were tested at 10 different concentrations, ranging from 0 to 100 μM. Ponatinib was used as a positive control^[ [30] ^] (Table 1 ).
SPR spectroscopy analyses were conducted to evaluate the binding affinity of the synthesized compounds against ROR1 receptor using a Biacore T200 optical biosensor equipped with research‐grade CM5 sensor chips (Cytiva, Marlborough, USA). ROR1 kinase domain was immobilized on the CM5 sensor chip surface following standard amine‐coupling protocols. Specifically, kinasic domain was immobilized at pH 4.5 10 mM CH3COONa using a flow rate of 10 μL min^−1, achieving a density of around 20 kRU.
For the experiments, surfaces of ROR1, along with an unmodified reference surface, were prepared for simultaneous analyses. […] The compounds were injected in a series of concentrations (1:2 dilution, 10 different concentrations), spanning from 0 to 100 μM. The concentration series were prepared in 96‐well plates. SPR experiments were conducted at 25 °C, with a flow rate of 20 μL min^−1, allowing for 90 s of association monitoring and 400 s of dissociation monitoring. Changes in mass, reflective of the binding response, were recorded as resonance units (RU). K D values were determined using the Biaevaluation software performing a global fit of the double‐referenced association and dissociation data to a 1:1 interaction model^[ [43] ^] (see Figure S38, Supporting Information).

SH‐SY5Y cells = test: MTT cell viability assay, SH‐SY5Y; format: cell-based; details: Homo sapiens, cytotoxicity, treated for 72 h, read-out: EC50 ± SD SH‐SY5Y
Description: (§1) Cytotoxicity studies, assessing the activity of the synthetized compounds, were performed only on the molecules showing the best binding profile in the SPR assay. MTT test was performed on two cell lines known for overexpressing ROR1, particularly MTT assays were conducted on JeKo‐1 (human mantle cell lymphoma) and SH‐SY5Y (neuroblastoma), exposing them to different concentrations of compounds for 72 h (Table 2 ). […] This increased effectiveness is likely due to the high expression of the target protein in leukemia and other hematologic malignancies. […] A key structural difference in 18 and 19 compared to active compounds is the absence of the trifluoromethyl group on the aromatic ring. Indeed, the removal of the trifluoromethyl group (18) or the incorporation of an electron‐donating substituent (19) alters the interaction with the ATP‐binding pocket.
The neuroblastoma SH‐SY5Y cells, a human neuroblastoma cell line of neural crest origin, were obtained from ATCC and were grown in DMEM supplemented with 10% v/v fetal bovine serum, 2 mM L‐glutamine, 100 U mL^−1 penicillin, and 0.1 mg mL^−1 streptomycin.
(§2) Cell viability was established by measuring mitochondrial metabolic activity with MTT. In brief, SH‐SY5Y (20 × 10^3 cells/well) and JeKo‐1 (10 × 10^3 cells/well) were plated into 96‐well plates for 24 h, then the compounds (1.56–50 μM) were added. […], cells were replaced with a fresh medium containing 0.5 mg mL^−1 MTT.^[ [45] ^] Cells were incubated for 1–3 h at 37 °C, then the medium was discarded, and formazan blue crystals in the cells dissolved with 100 μL per well of a solution containing isopropanol/HCl 0.1 M. The absorbance was measured at 570 nm using a microplate reader (Multiskan Go, Thermo Scientific, Waltham, MA, USA). Cell viability was expressed as a percentage relative to the untreated cells cultured in medium with 0.1% DMSO and set to 100%, whereas 10% DMSO was used as positive control and set to 0% of viability. The EC50 values were calculated using GraphPad Prism 8.0 software by nonlinear regression of dose‐response inhibition.

JeKo‐1 cells [1] = test: MTT cell viability assay, JeKo‐1; format: cell-based; details: Homo sapiens, cytotoxicity, treated for 72 h, read-out: EC50 ± SD JeKo‐1
Description: as §1
The JeKo‐1 mantle cell lymphoma (MCL) cell line, derived from mantle cell lymphoma of B‐cell lineage, was obtained from ATCC and was grown in RPMI supplemented with 10% v/v fetal bovine serum, 2 mM L‐glutamine, 100 U mL^−1 penicillin, and 0.1 mg mL^−1 streptomycin.
as §2

JeKo‐1 cells [2] = test: Annexin V‐FITC/PI staining apoptosis, flow cytometry; format: cell-based, human; details: JeKo‐1, 20 μM, 72 h, early and late apoptosis
Excerpt: This observation aligns with previous studies reporting that ROR1 is highly expressed in B‐cell malignancies, including mantle cell lymphoma, where it plays a crucial role in survival signaling and resistance to apoptosis.^[ [10], [32] ^] Given the higher susceptibility of JeKo‐1 cells to the inhibitor, we selected this model for further apoptotic analysis. However, for completeness, apoptotic data for the SH‐SY5Y cell line are also provided in the Supporting Information (Figure S39, Supporting Information). Specifically, cells were incubated with compounds 17, 20, or 29 (20 μM) for 72 h and a flow cytometry analysis using Annexin V/PI staining was performed. After treatment, a very strong increase in the apoptotic response was observed, in both early and late apoptotic populations compared to the negative control (Figure 4 ). […] These findings are in accordance with the literature and further support the potential of ROR1 inhibition in promoting cell death in mantle cell lymphoma.^[ [33] ^]
Figure 4 Proapoptotic activity of compounds 17, 20, and 29 (20 μM) on JeKo‐1 cells treated for 72 h. A) Representative flow cytometry plots using Annexin V‐FITC/PI staining for apoptosis. B) Related quantitative analysis is reported. Data are expressed as a percentage of live, apoptotic, and necrotic cells. Results are shown as mean ± standard deviation (SD) from three independent experiments. *** denote p < 0.001 versus Ctrl.
Apoptosis of the cells was assessed using annexin V‐FITC/PI reagents. JeKo‐1 cells (60 × 10^3 cells/well) were seeded into 24‐well plates and incubated for 72 h with compounds (20 and 10 μM). After treatment, the collected cells were resuspended in a 100 μL assay buffer, then 5 Annexin V‐FITC and 1 PI reagents were added following incubation for 20 min at room temperature according to the manufacturer's protocol (Dead Cell Apoptosis Kits with Annexin V for Flow Cytometry, Thermo Fisher Scientific). Cells were analyzed with a Becton Dickinson FACScan flow cytometer using the Cell Quest software, version 4 (Franklin Lakes, NJ, USA).^[ [46] ^]

[3] = SPR, KD ± SD, 0 to 100 μM, 25 °C, n.b. = no binding
[4] = SPR, KD ± SD, 0 to 100 μM, 25 °C, n.b. = no binding, read-out: Kinase domain KD

Row | Kinase domain KD (ROR1 kinase domain; [3]) | Kd (ROR1 kinase domain; [4]) | Compound | EC50 (SH‐SY5Y cells) | EC50 (JeKo‐1 cells [1]) | further results
1 | n.b. |  | N#CCCNc1ccc(NC(=O)NCc2ccc(-c3ccccc3)cc2)c(C(F)(F)F)c1 [Compound 10] |  |  | 
2 | n.b. |  | O=C(NCc1ccc(-c2ccccc2)cc1)Nc1ccc(NCc2ccncc2)cc1C(F)(F)F [Compound 13] |  |  | 
3 | n.b. |  | N#CCCNc1ccc(NC(=O)NCc2ccc(C(F)(F)F)cc2)cc1 [Compound 14] |  |  | 
4 |  | 18.4 ± 3.14 µM | O=C(NCc1ccc(-c2ccccc2)cc1)Nc1ccc(NCC2CCNCC2)cc1 [Compound 18] | > 50 µM | > 50 µM | 
5 |  | 15 ± 2.47 µM | COc1cc(NCC2CCNCC2)ccc1NC(=O)NCc1ccc(-c2ccccc2)cc1 [Compound 19] | > 50 µM | > 50 µM | 
6 |  | 16.7 ± 2.86 µM | NCCCNc1ccc(NC(=O)NCc2ccc(-c3ccccc3)cc2)c(C(F)(F)F)c1 [Compound 20] | 14.2 ± 4.81 µM | 11.3 ± 3.15 µM | apoptotic cells (JeKo‐1 cells [2]): 94.50 ± 3.12%
7 | n.b. |  | Nc1ccc(CNc2ccc(NC(=O)NCc3ccc(-c4ccccc4)cc3)c(C(F)(F)F)c2)cc1 [Compound 21] |  |  | 
8 | n.b. |  | Nc1ccc(CNc2ccc(NS(=O)(=O)c3ccc(-c4ccccc4)cc3)c(C(F)(F)F)c2)cc1 [Compound 26] |  |  | 
9 | n.b. |  | O=S(=O)(Nc1ccc(NCC2CCNCC2)cc1C(F)(F)F)c1ccc(-c2ccccc2)cc1 [Compound 27] |  |  | 
10 | n.b. |  | O=C(Nc1ccc(NCC2CCNCC2)cc1C(F)(F)F)c1ccc(-c2ccccc2)cc1 [Compound 28] |  |  | 
11 |  | 13.4 ± 1.92 µM | O=C(NCc1ccc(-c2ccccc2)cc1)Nc1ccc(NC2CCNCC2)cc1C(F)(F)F [Compound 29] | 18.5 ± 2.65 µM | 13.9 ± 2.75 µM | apoptotic cells (JeKo‐1 cells [2]): 73.15 ± 2.76%
12 |  |  | Cc1ccc(C(=O)Nc2ccc(CN3CCN(C)CC3)c(C(F)(F)F)c2)cc1C#Cc1cnc2cccnn12 [Ponatinib, 3‐(2‐imidazo[1,2‐b]pyridazin‐3‐ylethynyl)‐4‐methyl‐N‐[4‐[(4‐methylpiperazin‐1‐yl)methyl]‐3‐(trifluoromethyl)phenyl]benzamide, reference compound] | 4.25 ± 3.92 µM | 1.69 ± 1.03 µM | Kd (ROR1 kinase domain): 2.9 ± 0.85 µM
